Counter-ions that a name gives are not always drawn. Like-named read-outs stand apart in the source and are kept apart here.
Format: physicochemical
Conditions: sodium salt; for Stability of the polymorphic form (in words): storage, ambient condition (temperature and humidity) or closed cap

Row | Stability of the polymorphic form (in words) | Time after which the form converts to Pattern C (ambient condition) | Time after which the form converts to Pattern C (closed cap storage) | SMILES | other results
1 | metastable | – | – | Cc1c(-c2ccc(-c3ccccc3F)cc2)nc2ccc(F)cc2c1C(=O)O [Pattern A, brequinar sodium salt] | –
2 | – | Pattern C after 4 days at ambient | – | Cc1c(-c2ccc(-c3ccccc3F)cc2)nc2ccc(F)cc2c1C(=O)O [Pattern B, brequinar sodium salt] | –
3 | – | – | – | Cc1c(-c2ccc(-c3ccccc3F)cc2)nc2ccc(F)cc2c1C(=O)O [Pattern C, 6-Flouro-2-(2′-fluoro-1,1′-biphenyl-4-yl)-3-methyl-4-quinolinecarboxylic acid sodium salt] | Stability of the polymorphic form (in words) (listed as polymorphic form C): stable
4 | unstable | to Pattern C after 3 days at ambient | – | Cc1c(-c2ccc(-c3ccccc3F)cc2)nc2ccc(F)cc2c1C(=O)O [Pattern D, brequinar sodium salt] | –
5 | – | – | Pattern C after 1 week (closed cap weeks | Cc1c(-c2ccc(-c3ccccc3F)cc2)nc2ccc(F)cc2c1C(=O)O [Pattern E, brequinar sodium salt] | –
6 | – | – | Pattern C after 1 week (closed cap weeks | Cc1c(-c2ccc(-c3ccccc3F)cc2)nc2ccc(F)cc2c1C(=O)O [Pattern F, brequinar sodium salt] | –
7 | – | to Pattern C after 2 weeks at ambient | – | Cc1c(-c2ccc(-c3ccccc3F)cc2)nc2ccc(F)cc2c1C(=O)O [Pattern G, brequinar sodium salt] | –
8 | unstable | 2 days | – | Cc1c(-c2ccc(-c3ccccc3F)cc2)nc2ccc(F)cc2c1C(=O)O [Pattern I, brequinar sodium salt] | –
9 | – | – | 2 weeks | Cc1c(-c2ccc(-c3ccccc3F)cc2)nc2ccc(F)cc2c1C(=O)O [Pattern J, brequinar sodium salt] | –

Reference: patent publication US20210300873A1 (Clear Creek Bio, Inc., priority 2020, published 2021)
